According to patent US12551576B2, “Chemiluminescent probes” (The General Hospital Corporation, priority 2020, dated 2026):

Key:
[1] = Fluorescence and chemiluminescence spectral studies; type: physicochemical
Description: Materials and Methods: reagents used for the synthesis were purchased from Sigma-Aldrich and used without further purification. Column chromatography was performed on a glass column slurry-packed with silica gel (60 Å, […]; SiliCycle Inc.). Recombinant Aβ peptide (1-40/42) were purchased from rPeptide (A-1163-1). Aβ aggregates for in vitro studies were generated by slow stirring of Aβ40 in PBS buffer for 3 days at room temperature. ^1H and ^13C NMR spectra were recorded at 500 MHz and 125 MHz on Bruker spectrometers in CDCl3, CD3OD or DMSO-d6 solutions at room temperature with tetramethylsilane (TMS, δ=0) as an internal standard. Liquid chromatography-mass spectrometry (LC-MS) was performed using an Agilent 1200 Series apparatus with an LC/MSD trap and Daly conversion dynode detector with UV detection at 254 nm. Fluorescence measurements were carried out using an F-7100 fluorescence spectrophotometer (Hitachi). Transgenic female 5×FAD mice and age-matched wild-type female mice were purchased from Jackson Laboratory. All animal experiments were approved by the Institutional Animal Use and Care Committee at Massachusetts General Hospital. The IVIS Spectrum animal imaging system (PerkinElmer) was used for in vitro and in vivo imaging.
Fluorescence spectral studies: Normally, all chemiluminescent molecules are fluorescent. The excitation and emission spectra of ADLumin-X were recorded and the emission peak of ADLumin-1 was around 590 nm (FIG. 1D) in DMSO, which is considerably longer than most of the commercially available chemiluminescence probes. The emission of ADLumin-2 is longer than that of ADLumin-1, due to its additional double-bond. (the emission peak of ADLumin-2 was 20 nm longer). […] Based on this fact, ADLumin-1 was used throughout this example, due to its high QY.
Chemiluminescence spectral studies: ADLumin-1 is stable in PBS buffer and organic solvents, including acetonitrile, dichloromethane and methanol. […] Without being bound by any theory, it is believed that the luminescence was due to the auto-oxidation of ADLumin-1. Although the mechanism of chemiluminescence of IPO derivatives has been studied, the mechanism of auto-oxidation has been rarely explored. In the course of the experiments, ADLumin-1 emitted very strong luminescence in pure DMSO (FIG. 2b). Unexpectedly, if the ADLumin-1 DMSO solution was stirred, even stronger luminescence can be detected (3.4-fold in FIG. 2b). Without being bound by any theory, it is believed that the luminescence was related to oxygen levels in DMSO. […] However, the increasing-fold decreased with cycles (FIG. 2c). […] Since no ROS were added into the DMSO solution, it is reasonable to infer that the auto-oxidation of ADLumin-1 was oxygen-level dependent. It is worthy to note that green fluorescent protein and luciferase/luciferin also dependent on oxygen for their proper imaging functions.

PA-K2 = assay: ThT fluorescence test with PA-K and PA-K2; type: binding
misfoldons in serum = assay: ThT test of misfoldons in serum; parameters: species or system human; conditions: some misfoldons
Excerpt: However, the detected difference was much smaller than that by ADLumin-1.

Aβ40 aggregates = Aβ40 aggregates (Homo sapiens, UniProt P05067); assay: In vitro chemiluminescence study with Aβ aggregates in PBS; type: binding; conditions: pH 7.4
Aβ40 aggregates, sequence (P05067 672-711 limits assumed): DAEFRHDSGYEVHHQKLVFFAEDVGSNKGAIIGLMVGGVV

For Cc1nc2c[nH]c(/C=C/C=C/C=C/c3ccc(N(C)C)cc3)cn-2c1=O [ADLumin-2, 6-((1E,3E,5E)-6-(4-(dimethylamino)phenyl)hexa-1,3,5-trien-1-yl)-2-methylimidazo[1,2-a]pyrazin-3(7H)-one], the “quantum yield ratio ΦADLumin-1/ΦADLumin-2” value [1] was 1.5 and the “emission peak longer than that of ADLumin-1” value ([1]; fluorescence, DMSO) was 20 nm.
For Cc1ccc2c(c1)sc(-c1ccc(N(C)C)cc1)[n+]2C.[Cl-] [ThT, Thioflavin T], the “difference lower than the difference provided by ADLumin-1” value (PA-K2) was 11.8 fold, the “fluorescence difference between PA-K and PA-K2” value (PA-K2; ThT 0.01 mg/ml) was “about 4.01 fold” and the “peptide concentration at which the difference PA-K vs PA-K2 is detected” value (PA-K2; fluorescence) was 0.1 mg/mL. For the same compound, the “ThT signal for misfoldons in serum” value (misfoldons in serum) was “slightly higher signal”.
With MCLA [reference compound] the “chemiluminescence signal with Aβs” value (Aβ40 aggregates) was “significantly reduced signal”.
For firefly luciferin [reference compound], the “emission peak (FWHM comparison)” value [1] was 570 nm and the “full width at half-maximum (FWHM)” value [1] was 83 nm.
